Assay results from paper PMC6256357 (Chemical Science, 2018).

Target: sirtuin 2 (SIRT2) (Homo sapiens, UniProt Q8IXJ6)
Test: trypsin-coupled fluorescence-based deacetylase assay
Type: biochemical

sirtuin 2 (SIRT2), sequence (Q8IXJ6 2-389): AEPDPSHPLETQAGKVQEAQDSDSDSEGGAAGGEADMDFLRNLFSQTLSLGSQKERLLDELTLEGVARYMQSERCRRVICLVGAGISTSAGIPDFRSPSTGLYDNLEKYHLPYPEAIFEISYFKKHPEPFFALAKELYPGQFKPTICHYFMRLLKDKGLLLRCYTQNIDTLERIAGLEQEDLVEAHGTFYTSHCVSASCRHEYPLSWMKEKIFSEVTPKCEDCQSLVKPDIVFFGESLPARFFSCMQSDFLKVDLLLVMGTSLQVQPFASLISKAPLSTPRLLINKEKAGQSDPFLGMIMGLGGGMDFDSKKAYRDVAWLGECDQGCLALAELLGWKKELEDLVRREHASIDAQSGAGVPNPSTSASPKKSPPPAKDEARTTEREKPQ

Q: With `NC(=O)c1ccc[n+]([C@@H]2O[C@H](COP(=O)([O-])OP(=O)(O)OC[C@H]3O[C@@H](n4cnc5c(N)ncnc54)[C@H](O)[C@@H]3O)[C@@H](O)[C@H]2O)c1` [NAD^+] as the compound, how does the “trypsin-coupled fluorescence-based deacetylase assay” value read?
A: Its value is “in contrast to NAD^+ that could participate in SIRT2-catalyzed protein deacetylation”.
